Source: patent US20080114007A1 (priority 2006, published 2008)
Read-outs that look alike come from different tables or passages of the source.

Target: CSF-1R (Homo sapiens, UniProt P07333)
Assay: Peptide (non-phosphorylated) assay, fluorescence polarization competition immunoassay
Assay type: biochemical
Settings: 308 μM SYEGNSYTFIDPTQ peptide, 1 mM ATP, 80 min, mean of at least three determinations
Outline: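 Read-out is fluorescence polarization: after EDTA quench, anti-phosphotyrosine antibody plus PTK green tracer compete with the phosphorylated peptide for 30 min. The CSF-1R reaction itself ran 80 min at room temperature after ATP addition. DMSO (4%) wells served as controls, positive controls pre-treated with EDTA.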

[1] = 0.7 nM CSF-1R, read-out: c-fms Peptide IC50

CSF-1R, sequence (P07333 20-972): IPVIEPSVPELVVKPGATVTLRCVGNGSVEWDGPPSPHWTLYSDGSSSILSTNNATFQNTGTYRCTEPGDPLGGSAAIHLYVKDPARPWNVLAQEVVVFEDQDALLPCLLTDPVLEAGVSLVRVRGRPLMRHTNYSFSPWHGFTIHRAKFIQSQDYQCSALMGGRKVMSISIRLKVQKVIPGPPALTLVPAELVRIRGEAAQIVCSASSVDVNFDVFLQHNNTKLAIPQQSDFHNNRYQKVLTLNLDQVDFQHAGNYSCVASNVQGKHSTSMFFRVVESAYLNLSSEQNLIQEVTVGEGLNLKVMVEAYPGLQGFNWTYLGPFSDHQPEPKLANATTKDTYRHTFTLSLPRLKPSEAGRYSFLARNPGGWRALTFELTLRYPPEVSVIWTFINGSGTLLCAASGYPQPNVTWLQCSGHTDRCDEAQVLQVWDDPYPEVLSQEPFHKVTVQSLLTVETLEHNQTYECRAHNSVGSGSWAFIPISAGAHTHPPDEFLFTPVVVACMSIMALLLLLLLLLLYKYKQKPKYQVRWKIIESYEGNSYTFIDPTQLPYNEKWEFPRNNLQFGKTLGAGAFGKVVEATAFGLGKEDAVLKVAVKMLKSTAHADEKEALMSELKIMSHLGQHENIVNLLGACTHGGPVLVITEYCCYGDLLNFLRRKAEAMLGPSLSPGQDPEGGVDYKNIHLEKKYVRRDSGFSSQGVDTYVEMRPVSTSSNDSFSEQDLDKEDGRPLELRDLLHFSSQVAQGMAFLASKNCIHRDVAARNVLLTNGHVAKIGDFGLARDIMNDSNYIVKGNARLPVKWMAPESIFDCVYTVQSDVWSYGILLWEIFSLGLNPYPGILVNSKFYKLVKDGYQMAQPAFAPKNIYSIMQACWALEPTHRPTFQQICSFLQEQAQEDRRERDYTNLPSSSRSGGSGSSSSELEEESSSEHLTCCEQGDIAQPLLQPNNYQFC

| SMILES | IC50 [1] | IC50 (c-fms Peptide IC50, 0.7 nM CSF-1R) |
| --- | --- | --- |
| CC(C)ONC(=O)c1cn(C2CCCC2)c2nc(Nc3ccc(CCN4CCCC4)cc3)ncc2c1=O [Cpd 41, 8-cyclopentyl-5-oxo-2-[4-(2-pyrrolidin-1-yl-ethyl)-phenylamino]-5,8-dihydro-pyrido[2,3-d]pyrimidine-6-carboxylic acid isopropoxy-amide] | 4.1 nM |  |
| CONC(=O)c1cn(-c2ccc3c(c2)CCC3)c2nc(Nc3cccc(S(=O)(=O)N(C)C)c3)ncc2c1=O [Cpd 129, 2-(3-dimethylsulfamoyl-phenylamino)-8-indan-5-yl-5-oxo-5,8-dihydro-pyrido[2,3-d]pyrimidine-6-carboxylic acid methoxy-amide] | 2.3 nM |  |
| COCCc1ccc(Nc2ncc3c(=O)c(C(=O)NOC)cn(-c4ccc5c(c4)CCC5)c3n2)cc1 [Cpd 81, 8-indan-5-yl-2-[4-(2-methoxy-ethyl)-phenylamino]-5-oxo-5,8-dihydro-pyrido[2,3-d]pyrimidine-6-carboxylic acid methoxy-amide] | 3 nM |  |
| CONC(=O)c1cn(-c2ccc3c(c2)CCC3)c2nc(Nc3ccc(CCc4ncn[nH]4)cc3)ncc2c1=O [Cpd 190, 8-indan-5-yl-5-oxo-2-{4-[2-(1H-[1,2,4]triazol-3-yl)-ethyl]-phenylamino}-5,8-dihydro-pyrido[2,3-d]pyrimidine-6-carboxylic acid methoxy-amide] | 4.2 nM |  |
| CCc1ccc(-n2cc(C(=O)NOC)c(=O)c3cnc(Nc4ccc(C5CCN(C)CC5)cc4)nc32)cc1 [Cpd 156, 8-(4-ethyl-phenyl)-2-[4-(1-methyl-piperidin-4-yl)-phenylamino]-5-oxo-5,8-dihydro-pyrido[2,3-d]pyrimidine-6-carboxylic acid methoxy-amide] |  | 0.3 nM |
| CCc1ccc(-n2cc(C(=O)NOC(CC)CC)c(=O)c3cnc(Nc4ccc(CCN5CCN(C)CC5)cc4)nc32)cc1 [Cpd 93, 8-(4-ethyl-phenyl)-2-{4-[2-(4-methyl-piperazin-1-yl)-ethyl]-phenylamino}-5-oxo-5,8-dihydro-pyrido[2,3-d]pyrimidine-6-carboxylic acid (1-ethyl-propoxy)-amide] | 4.9 nM |  |
| CCOC(=O)CN1CCC(c2ccc(Nc3ncc4c(=O)c(C(=O)NOC)cn(-c5ccc6c(c5)CCC6)c4n3)cc2)CC1 [Cpd 86, {4-[4-(8-indan-5-yl-6-methoxycarbamoyl-5-oxo-5,8-dihydro-pyrido[2,3-d]pyrimidin-2-ylamino)-phenyl]-piperidin-1-yl}-acetic acid ethyl ester] | 1.8 nM |  |
| CONC(=O)c1cn(-c2ccc(OC(F)(F)F)cc2)c2nc(Nc3ccc(CCc4n[nH]c(C)n4)cc3)ncc2c1=O [Cpd 191, 2-{4-[2-(5-methyl-1H-[1,2,4]triazol-3-yl)-ethyl]-phenylamino}-5-oxo-8-(4-trifluoromethoxyphenyl)-5,8-dihydropyrido[2,3-d]pyrimidine-6-carboxylic acid methoxy-amide] | 5.6 nM |  |
| CCc1ccc(-n2cc(C(=O)NOC)c(=O)c3cnc(Nc4cccc(C5(O)CCCN(CC)C5)c4)nc32)cc1 (stereo not shown) [Cpd 278, 2-[3-(1-ethyl-3-hydroxy-piperidin-3-yl)-phenylamino]-8-(4-ethyl-phenyl)-5-oxo-5,8-dihydro-pyrido[2,3-d]pyrimidine-6-carboxylic acid methoxy-amide] | 4.9 nM |  |
| CCONC(=O)c1cn(-c2ccc3c(c2)CCC3)c2nc(Nc3ccc(CCN4CCCC4=O)cc3)ncc2c1=O [Cpd 135, 8-indan-5-yl-5-oxo-2-{4-[2-(2-oxo-pyrrolidin-1-yl)-ethyl]-phenylamino}-5,8-dihydro-pyrido[2,3-d]pyrimidine-6-carboxylic acid ethoxy-amide] | 66 nM |  |
| CONC(=O)c1cn(C2CCCC2)c2nc(Nc3ccc(C4CCN(C(C)=O)CC4)cc3)ncc2c1=O [Cpd 46, 2-[4-(1-acetyl-piperidin-4-yl)-phenylamino]-8-cyclopentyl-5-oxo-5,8-dihydro-pyrido[2,3-d]pyrimidine-6-carboxylic acid methoxy-amide] | 2.6 nM |  |
| CONC(=O)c1cn(-c2ccc3c(c2)CCC3)c2nc(Nc3ccc4[nH]cnc4c3)ncc2c1=O [Cpd 302, 2-(1H-benzoimidazol-5-ylamino)-8-indan-5-yl-5-oxo-5,8-dihydro-pyrido[2,3-d]pyrimidine-6-carboxylic acid methoxy-amide] | 319 nM |  |

More lines, now with the values ahead:

| IC50 [1] | IC50 (c-fms Peptide IC50, 0.7 nM CSF-1R) | SMILES |
| --- | --- | --- |
| 0.9 nM |  | CCc1ccc(-n2cc(C(=O)NOC(C)C)c(=O)c3cnc(Nc4ccc(C5CCN(CCO)CC5)cc4)nc32)cc1 [Cpd 184, 8-(4-ethyl-phenyl)-2-{4-[1-(2-hydroxy-ethyl)-piperidin-4-yl]-phenylamino}-5-oxo-5,8-dihydro-pyrido[2,3-d]pyrimidine-6-carboxylic acid isopropoxy-amide] |
| 0.53 nM |  | CONC(=O)c1cn(-c2ccc3c(c2)CCC3)c2nc(Nc3ccc(C4CCNCC4)cc3)ncc2c1=O [Cpd 75, 8-indan-5-yl-5-oxo-2-(4-piperidin-4-yl-phenylamino)-5,8-dihydro-pyrido[2,3-d]pyrimidine-6-carboxylic acid methoxy-amide] |
| 0.5 nM |  | COCCOc1ccc(Nc2ncc3c(=O)c(C(=O)NOC)cn(-c4ccc5c(c4)CCC5)c3n2)cc1OCCOC [Cpd 314, 2-[3,4-bis-(2-methoxy-ethoxy)-phenylamino]-8-indan-5-yl-5-oxo-5,8-dihydro-pyrido[2,3-d]pyrimidine-6-carboxylic acid methoxy-amide] |
| 1.2 nM |  | CONC(=O)c1cn(-c2ccc(C)c(C)c2)c2nc(Nc3ccc(CCN4CCCC4=O)cc3)ncc2c1=O [Cpd 50, 8-(3,4-dimethyl-phenyl)-5-oxo-2-{4-[2-(2-oxo-pyrrolidin-1-yl)-ethyl]-phenylamino}-5,8-dihydro-pyrido[2,3-d]pyrimidine-6-carboxylic acid methoxy-amide] |
| 0.52 nM |  | CC(C)ONC(=O)c1cn(-c2ccc3c(c2)CCC3)c2nc(Nc3ccc(CCN4CCN(C)CC4)cc3)ncc2c1=O [Cpd 63, 8-indan-5-yl-2-{4-[2-(4-methyl-piperazin-1-yl)-ethyl]-phenylamino}-5-oxo-5,8-dihydro-pyrido[2,3-d]pyrimidine-6-carboxylic acid isopropoxy-amide] |
| 1.4 nM |  | CNS(=O)(=O)CCc1ccc(Nc2ncc3c(=O)c(C(=O)NOC)cn(-c4ccc5c(c4)CCC5)c3n2)cc1 [Cpd 89, 8-indan-5-yl-2-[4-(2-methylsulfamoyl-ethyl)-phenylamino]-5-oxo-5,8-dihydro-pyrido[2,3-d]pyrimidine-6-carboxylic acid methoxy-amide] |
| 1.1 nM |  | CONC(=O)c1cn(-c2ccc3c(c2)CCC3)c2nc(Nc3cccc(N(C)C)c3)ncc2c1=O [Cpd 326, 2-(3-dimethylamino-phenylamino)-8-indan-5-yl-5-oxo-5,8-dihydro-pyrido[2,3-d]pyrimidine-6-carboxylic acid methoxy-amide] |
| 0.9 nM |  | CONC(=O)c1cn(-c2ccc3c(c2)CCC3)c2nc(Nc3ccc(CCNCCS(C)(=O)=O)cc3)ncc2c1=O [Cpd 99, 8-indan-5-yl-2-{4-[2-(2-methanesulfonyl-ethylamino)-ethyl]-phenylamino}-5-oxo-5,8-dihydro-pyrido[2,3-d]pyrimidine-6-carboxylic acid methoxy-amide] |
| 1.2 nM |  | CCc1ccc(-n2cc(C(=O)NOC)c(=O)c3cnc(Nc4ccc(C5CCN(CCc6ccccc6)CC5)cc4)nc32)cc1 [Cpd 295, 8-(4-ethyl-phenyl)-5-oxo-2-[4-(1-phenethyl-piperidin-4-yl)-phenylamino]-5,8-dihydro-pyrido[2,3-d]pyrimidine-6-carboxylic acid methoxy-amide] |
| 1.3 nM |  | CONC(=O)c1cn(-c2ccc3c(c2)CCC3)c2nc(Nc3cccc(CCN4CCN(C)CC4)c3)ncc2c1=O [Cpd 200, 8-indan-5-yl-2-{3-[2-(4-methyl-piperazin-1-yl)-ethyl]-phenylamino}-5-oxo-5,8-dihydro-pyrido[2,3-d]pyrimidine-6-carboxylic acid methoxy-amide] |
| 1.2 nM |  | CONC(=O)c1cn(-c2ccc3c(c2)CCC3)c2nc(Nc3ccc(CCN4CCN(S(C)(=O)=O)CC4)cc3)ncc2c1=O [Cpd 146, 8-indan-5-yl-2-{4-[2-(4-methanesulfonyl-piperazin-1-yl)-ethyl]-phenylamino}-5-oxo-5,8-dihydro-pyrido[2,3-d]pyrimidine-6-carboxylic acid methoxy-amide] |
| 1.7 nM |  | CCc1ccc(-n2cc(C(=O)NOC)c(=O)c3cnc(Nc4cccc(N(C)C)c4)nc32)cc1 [Cpd 319, 2-(3-dimethylamino-phenylamino)-8-(4-ethyl-phenyl)-5-oxo-5,8-dihydro-pyrido[2,3-d]pyrimidine-6-carboxylic acid methoxy-amide] |
| 1.3 nM |  | CCONC(=O)c1cn(C2CCCCC2)c2nc(Nc3ccc(C4CCN(C)CC4)cc3)ncc2c1=O [Cpd 141, 8-cyclohexyl-2-[4-(1-methyl-piperidin-4-yl)-phenylamino]-5-oxo-5,8-dihydro-pyrido[2,3-d]pyrimidine-6-carboxylic acid ethoxy-amide] |
| 0.66 nM |  | CONC(=O)c1cn(-c2ccc(OC(F)(F)F)cc2)c2nc(Nc3ccc(C4CCN(C)CC4)cc3)ncc2c1=O [Cpd 159, 2-[4-(1-methylpiperidin-4-yl)-phenylamino]-5-oxo-8-(4-trifluoromethoxyphenyl)-5,8-dihydropyrido[2,3-d]pyrimidine-6-carboxylic acid methoxy-amide] |
| 0.76 nM |  | CONC(=O)c1cn(-c2ccc3c(c2)CCC3)c2nc(Nc3ccc(CCn4ccnc4)cc3)ncc2c1=O [Cpd 171, 2-[4-(2-imidazol-1-yl-ethyl)-phenylamino]-8-indan-5-yl-5-oxo-5,8-dihydro-pyrido[2,3-d]pyrimidine-6-carboxylic acid methoxy-amide] |
| 0.3 nM |  | CCc1ccc(-n2cc(C(=O)NOC)c(=O)c3cnc(Nc4ccc(OC5CCN(C)CC5)cc4)nc32)cc1 [Cpd 309, 8-(4-ethyl-phenyl)-2-[4-(1-methyl-piperidin-4-yloxy)-phenylamino]-5-oxo-5,8-dihydro-pyrido[2,3-d]pyrimidine-6-carboxylic acid methoxy-amide] |
